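Where inhibition never reached the appropriate level, the endpoint shown equals the highest concentration tested. Otherwise, values were interpolated linearly from a five-concentration, 48-hour dose response in 96-well plates. GI50 is the concentration that inhibits growth by half.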 Calls of active or inactive are those of the source. No stated cut-off is given here; in the data, active = GI50 up to about 1.1 µM and inactive = higher.
Assays:
Assay in all cases: NCI-60 cell line screen, 48 h
NCI-H23 = tested on: NCI-H23
SF-539 = tested on: SF-539
IGROV-1 = tested on: IGROV-1
TK-10 = tested on: TK-10
HT-29 = tested on: HT-29
HCT-116 = tested on: HCT-116
HOP-18 = tested on: HOP-18
SNB-78 = tested on: SNB-78
HL-60 = tested on: HL-60
XF498 = tested on: XF498
HOP-62 = tested on: HOP-62
CAKI-1 = tested on: CAKI-1
CCRF-CEM = tested on: CCRF-CEM
UACC-62 = tested on: UACC-62
DMS-273 = tested on: DMS-273
RPMI-8226 = tested on: RPMI-8226
A549 = tested on: A549
NCI-H522 = tested on: NCI-H522
HOP-92 = tested on: HOP-92
786-0 = tested on: 786-0
NCI-H460 = tested on: NCI-H460
SNB-75 = tested on: SNB-75
LOX IMVI = tested on: LOX IMVI
SR = tested on: SR
HCT-15 = tested on: HCT-15
SK-MEL-5 = tested on: SK-MEL-5
SF-268 = tested on: SF-268
SNB-19 = tested on: SNB-19
OVCAR-3 = tested on: OVCAR-3
UO-31 = tested on: UO-31
RXF 393 = tested on: RXF 393
KM12 = tested on: KM12
KM-20L2 = tested on: KM-20L2
EKVX = tested on: EKVX
MOLT-4 = tested on: MOLT-4
UACC-257 = tested on: UACC-257
SW-620 = tested on: SW-620
DLD-1 = tested on: DLD-1
SF-295 = tested on: SF-295
A498 = tested on: A498
SN12C = tested on: SN12C
DMS-114 = tested on: DMS-114
Malme-3M = tested on: Malme-3M
SK-MEL-2 = tested on: SK-MEL-2
OVCAR-4 = tested on: OVCAR-4
COLO 205 = tested on: COLO 205
M14 = tested on: M14
SK-MEL-28 = tested on: SK-MEL-28
OVCAR-8 = tested on: OVCAR-8
M19-MEL = tested on: M19-MEL
OVCAR-5 = tested on: OVCAR-5
U-251 = tested on: U-251
SK-OV-3 = tested on: SK-OV-3
HCC 2998 = tested on: HCC 2998
K562 = tested on: K562
ACHN = tested on: ACHN
NCI-H226 = tested on: NCI-H226
LXFL 529 = tested on: LXFL 529
RXF 631 = tested on: RXF 631

O=C(CC1(O)C(=O)Nc2c(Cl)cc(Cl)cc21)c1ccc([N+](=O)[O-])cc1 (stereo unspecified)
GI50 (NCI-H23): 29.9 µM (inactive) | GI50 (SF-539): > 46.7 µM (inactive) | GI50 (IGROV-1): > 52.2 µM (inactive) | GI50 (TK-10): > 100 µM (inactive) | GI50 (HT-29): > 58.9 µM (inactive) | GI50 (HCT-116): > 42.2 µM (inactive) | GI50 (HOP-18): > 100 µM (inactive) | GI50 (SNB-78): > 47.8 µM (inactive) | GI50 (HL-60): 7.89 µM (inactive) | GI50 (XF498): 56.5 µM (inactive) | GI50 (HOP-62): > 100 µM (inactive) | GI50 (CAKI-1): > 53.8 µM (inactive) | GI50 (CCRF-CEM): 26.7 µM (inactive) | GI50 (UACC-62): 28.1 µM (inactive) | GI50 (DMS-273): > 62.4 µM (inactive) | GI50 (RPMI-8226): 26.9 µM (inactive) | GI50 (A549): > 79.8 µM (inactive) | GI50 (NCI-H522): 19.4 µM (inactive) | GI50 (HOP-92): 24.3 µM (inactive) | GI50 (786-0): 85.3 µM (inactive) | GI50 (NCI-H460): 86.5 µM (inactive) | GI50 (SNB-75): 29.2 µM (inactive) | GI50 (LOX IMVI): > 100 µM (inactive) | GI50 (SR): > 51.3 µM (inactive) | GI50 (HCT-15): > 55.3 µM | GI50 (SK-MEL-5): 22.8 µM (inactive) | GI50 (SF-268): > 50.8 µM (inactive) | GI50 (SNB-19): > 100 µM (inactive) | GI50 (OVCAR-3): 33.7 µM (inactive) | GI50 (UO-31): 17.4 µM (inactive) | GI50 (RXF 393): > 100 µM (inactive) | GI50 (KM12): > 54.8 µM (inactive) | GI50 (KM-20L2): > 78 µM (inactive) | GI50 (EKVX): 43.4 µM (inactive) | GI50 (MOLT-4): > 59.4 µM (inactive) | GI50 (UACC-257): 33.3 µM (inactive) | GI50 (SW-620): 28.3 µM (inactive) | GI50 (DLD-1): > 43.4 µM (inactive) | GI50 (SF-295): > 66.1 µM (inactive) | GI50 (A498): 29.9 µM (inactive) | GI50 (SN12C): > 45.7 µM (inactive) | GI50 (DMS-114): 23.8 µM (inactive) | GI50 (Malme-3M): > 43.9 µM (inactive) | GI50 (SK-MEL-2): > 56.4 µM (inactive) | GI50 (OVCAR-4): 17.5 µM (inactive) | GI50 (COLO 205): > 58.5 µM (inactive) | GI50 (M14): > 41.6 µM (inactive) | GI50 (SK-MEL-28): > 44 µM (inactive) | GI50 (OVCAR-8): > 51.5 µM (inactive) | GI50 (M19-MEL): 10.3 µM (inactive) | GI50 (OVCAR-5): > 100 µM (inactive) | GI50 (U-251): 31.7 µM (inactive) | GI50 (SK-OV-3): > 100 µM (inactive) | GI50 (HCC 2998): 38 µM (inactive) | GI50 (K562): 43.4 µM (inactive) | GI50 (ACHN): 38.6 µM (inactive) | GI50 (NCI-H226): 30.6 µM (inactive) | GI50 (LXFL 529): 25.6 µM (inactive)

COC(=O)C(=O)C(C#N)c1c(Cl)cccc1Cl (stereo unspecified)
GI50 (NCI-H23): > 100 µM (inactive) | GI50 (SF-539): > 100 µM (inactive) | GI50 (IGROV-1): > 100 µM (inactive) | GI50 (TK-10): > 100 µM (inactive) | GI50 (RXF 631): > 100 µM (inactive) | GI50 (HT-29): > 100 µM (inactive) | GI50 (HCT-116): > 100 µM (inactive) | GI50 (SNB-78): > 100 µM (inactive) | GI50 (HL-60): > 100 µM (inactive) | GI50 (XF498): > 100 µM (inactive) | GI50 (HOP-62): > 100 µM (inactive) | GI50 (CAKI-1): > 100 µM (inactive) | GI50 (UACC-62): > 100 µM (inactive) | GI50 (DMS-273): > 100 µM (inactive) | GI50 (RPMI-8226): > 100 µM (inactive) | GI50 (A549): > 100 µM (inactive) | GI50 (NCI-H522): > 100 µM (inactive) | GI50 (HOP-92): > 100 µM (inactive) | GI50 (786-0): > 100 µM (inactive) | GI50 (NCI-H460): > 100 µM (inactive) | GI50 (SNB-75): > 100 µM (inactive) | GI50 (LOX IMVI): > 100 µM (inactive) | GI50 (HCT-15): > 100 µM | GI50 (SK-MEL-5): > 100 µM (inactive) | GI50 (SF-268): > 100 µM (inactive) | GI50 (SNB-19): > 100 µM (inactive) | GI50 (OVCAR-3): > 100 µM (inactive) | GI50 (UO-31): > 100 µM (inactive) | GI50 (RXF 393): > 100 µM (inactive) | GI50 (KM-20L2): > 100 µM (inactive) | GI50 (EKVX): > 100 µM (inactive) | GI50 (MOLT-4): > 100 µM (inactive) | GI50 (UACC-257): > 100 µM (inactive) | GI50 (SW-620): > 100 µM (inactive) | GI50 (DLD-1): > 100 µM (inactive) | GI50 (SF-295): > 100 µM (inactive) | GI50 (A498): > 100 µM (inactive) | GI50 (SN12C): > 100 µM (inactive) | GI50 (DMS-114): > 100 µM (inactive) | GI50 (Malme-3M): > 100 µM (inactive) | GI50 (SK-MEL-2): > 100 µM (inactive) | GI50 (OVCAR-4): > 100 µM (inactive) | GI50 (COLO 205): > 100 µM (inactive) | GI50 (M14): > 100 µM (inactive) | GI50 (SK-MEL-28): > 100 µM (inactive) | GI50 (OVCAR-8): > 100 µM (inactive) | GI50 (M19-MEL): > 100 µM (inactive) | GI50 (OVCAR-5): > 100 µM (inactive) | GI50 (SK-OV-3): > 100 µM (inactive) | GI50 (K562): > 100 µM (inactive) | GI50 (ACHN): > 100 µM (inactive) | GI50 (NCI-H226): > 100 µM (inactive) | GI50 (LXFL 529): > 100 µM (inactive)
